# From ChEMBL document CHEMBL1201861, “Genomics of Drug Sensitity in Cancer screening data, Wellcome Trust Sanger Institute”
# What was measured:
# Experiment in all cases: cells
# Format in all cases: functional, cell-based, Homo sapiens
# COLO-824 = details: Homo sapiens, COLO-824
# Description: SANGER: Inhibition of human COLO-824 cell growth in a cell viability assay.
# CTB-1 = details: Homo sapiens, CTB-1
# Description: SANGER: Inhibition of human CTB-1 cell growth in a cell viability assay.
# CTV-1 = details: Homo sapiens, CTV-1;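 note: growth inhibition of the cell line, read out with a cell viability assay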
# Description: SANGER: Inhibition of human CTV-1 cell growth in a cell viability assay.
# Calu-6 = details: Homo sapiens, Calu-6;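 note: growth of human Calu-6 cells, read out by a cell viability assay, IC50 marking inhibition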
# Description: SANGER: Inhibition of human Calu-6 cell growth in a cell viability assay.
# D-263MG = details: Homo sapiens, D-263MG
# Description: SANGER: Inhibition of human D-263MG cell growth in a cell viability assay.
# ES6 = details: Homo sapiens, ES6;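 note: growth inhibition of human ES6 cells, read out with a cell viability assay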
# Description: SANGER: Inhibition of human ES6 cell growth in a cell viability assay.
# EW-16 = details: Homo sapiens, EW-16;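 note: growth inhibition of human EW-16 cells, read out as cell viability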
# Description: SANGER: Inhibition of human EW-16 cell growth in a cell viability assay.
# EOL1 = details: Homo sapiens, EOL1;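 note: growth inhibition of EoL-1 cells, read out by a cell viability assay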
# Description: SANGER: Inhibition of human EoL-1-cell cell growth in a cell viability assay.
# HCC1187 = details: Homo sapiens, HCC1187;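 note: growth inhibition of HCC1187 cells, read out with a cell viability assay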
# Description: SANGER: Inhibition of human HCC1187 cell growth in a cell viability assay.
# HCC2157 = details: Homo sapiens, HCC2157;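 note: growth inhibition of the cancer cell line, read out as cell viability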
# Description: SANGER: Inhibition of human HCC2157 cell growth in a cell viability assay.
# HCC2218 = details: Homo sapiens, HCC2218;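 note: cell viability assay read-out, with IC50 given as the concentration that inhibits growth of the cell line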
# Description: SANGER: Inhibition of human HCC2218 cell growth in a cell viability assay.
# HEL = details: Homo sapiens, HEL;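 note: growth inhibition of HEL cells, read out with a cell viability assay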
# Description: SANGER: Inhibition of human HEL cell growth in a cell viability assay.
# HT-144 = details: Homo sapiens, HT-144
# Description: SANGER: Inhibition of human HT-144 cell growth in a cell viability assay.
# JAR = details: Homo sapiens, JAR;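 note: growth inhibition of human JAR cells determined with a cell viability assay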
# Description: SANGER: Inhibition of human JAR cell growth in a cell viability assay.
# KGN = details: Homo sapiens, KGN;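 note: growth inhibition of KGN cells, read out with a cell viability assay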
# Description: SANGER: Inhibition of human KGN cell growth in a cell viability assay.
# KM12 = details: Homo sapiens, KM12;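 note: KM12 cell growth inhibition, read out with a cell viability assay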
# Description: SANGER: Inhibition of human KM12 cell growth in a cell viability assay.
# KY821 = details: Homo sapiens, KY821;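 note: growth inhibition of human KY821 cells, read out by a cell viability assay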
# Description: SANGER: Inhibition of human KY821 cell growth in a cell viability assay.
# LAN-6 = details: Homo sapiens, LAN-6;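 note: growth inhibition of LAN-6 cells, determined with a cell viability assay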
# Description: SANGER: Inhibition of human LAN-6 cell growth in a cell viability assay.
# LB2518-MEL = details: Homo sapiens, LB2518-MEL;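 note: growth inhibition of human LB2518-MEL cells, measured with a cell viability assay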
# Description: SANGER: Inhibition of human LB2518-MEL cell growth in a cell viability assay.
# LU-134-A = details: Homo sapiens, LU-134-A
# Description: SANGER: Inhibition of human LU-134-A cell growth in a cell viability assay.
# LU-139 = details: Homo sapiens, LU-139
# Description: SANGER: Inhibition of human LU-139 cell growth in a cell viability assay.
# MFH-ino = details: Homo sapiens, MFH-ino;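 note: growth inhibition of human MFH-ino cells, read out by a cell viability assay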
# Description: SANGER: Inhibition of human MFH-ino cell growth in a cell viability assay.
# MS-1 = details: Homo sapiens, MS-1;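 note: growth inhibition of MS-1 cells, read out by cell viability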
# Description: SANGER: Inhibition of human MS-1 cell growth in a cell viability assay.
# NCI-H1304 = details: Homo sapiens, NCI-H1304;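 note: growth inhibition of the cancer cell line, measured in a cell viability assay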
# Description: SANGER: Inhibition of human NCI-H1304 cell growth in a cell viability assay.
# NCI-H2126 = details: Homo sapiens, NCI-H2126;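 note: growth inhibition of the cancer cell line, determined with a cell viability readout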
# Description: SANGER: Inhibition of human NCI-H2126 cell growth in a cell viability assay.
# NCI-H526 = details: Homo sapiens, NCI-H526;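 note: growth inhibition of the human NCI-H526 cell line, measured by a cell viability assay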
# Description: SANGER: Inhibition of human NCI-H526 cell growth in a cell viability assay.
# SNU1 = details: Homo sapiens, SNU1;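 note: growth inhibition of human NCI-SNU-1 cells, measured with a cell viability assay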
# Description: SANGER: Inhibition of human NCI-SNU-1 cell growth in a cell viability assay.
# SNU-5 = details: Homo sapiens, SNU-5;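 note: cell viability readout used to measure growth inhibition in human NCI-SNU-5 cells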
# Description: SANGER: Inhibition of human NCI-SNU-5 cell growth in a cell viability assay.
# NMC-G1 = details: Homo sapiens, NMC-G1;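 note: growth inhibition of the NMC-G1 cell line, measured with a cell viability read-out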
# Description: SANGER: Inhibition of human NMC-G1 cell growth in a cell viability assay.
# PSN1 = details: Homo sapiens, PSN1;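 note: suppression of growth of human PSN1 cells, read out by a cell viability assay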
# Description: SANGER: Inhibition of human PSN1 cell growth in a cell viability assay.
# RXF 393 = details: Homo sapiens, RXF 393;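 note: growth inhibition of human RXF 393 cells, read out with a cell viability assay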
# Description: SANGER: Inhibition of human RXF393 cell growth in a cell viability assay.
# SCH = details: Homo sapiens, SCH;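 note: growth inhibition of human SCH cells, read out in a cell viability assay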
# Description: SANGER: Inhibition of human SCH cell growth in a cell viability assay.
# SF-126 = details: Homo sapiens, SF-126;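 note: growth inhibition of human SF126 cells, read out with a cell viability assay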
# Description: SANGER: Inhibition of human SF126 cell growth in a cell viability assay.
# SJSA-1 = details: Homo sapiens, SJSA-1;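 note: growth inhibition of human SJSA-1 cells, read out through a cell viability measurement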
# Description: SANGER: Inhibition of human SJSA-1 cell growth in a cell viability assay.
# SK-N-FI = details: Homo sapiens, SK-N-FI;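 note: cell viability assay measuring growth inhibition of human SK-N-FI cells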
# Description: SANGER: Inhibition of human SK-N-FI cell growth in a cell viability assay.
# A253 cell line = details: Homo sapiens, A253;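 note: growth inhibition of A253 cells, read out with a cell viability assay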
# Description: SANGER: Inhibition of human A253 cell growth in a cell viability assay.
# A388 = details: Homo sapiens, A388;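 note: growth inhibition of human A388 cells, read out with a cell viability assay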
# Description: SANGER: Inhibition of human A388 cell growth in a cell viability assay.
# ALL-PO = details: Homo sapiens, ALL-PO;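 note: growth inhibition of ALL-PO cells, read out by a cell viability assay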
# Description: SANGER: Inhibition of human ALL-PO cell growth in a cell viability assay.
# BT-474 = details: Homo sapiens, BT-474
# Description: SANGER: Inhibition of human BT-474 cell growth in a cell viability assay.
# Becker = details: Homo sapiens, Becker;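 note: growth inhibition of Becker cells, read out with a cell viability assay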
# Description: SANGER: Inhibition of human Becker cell growth in a cell viability assay.
# C8166 = details: Homo sapiens, C8166;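 note: growth inhibition of human C8166 cells measured by a cell viability assay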
# Description: SANGER: Inhibition of human C8166 cell growth in a cell viability assay.
# TE-6 = details: Homo sapiens, TE-6;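 note: growth inhibition of TE-6 cells, read out with a cell viability assay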
# Description: SANGER: Inhibition of human TE-6 cell growth in a cell viability assay.
# TGW = details: Homo sapiens, TGW;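 note: growth inhibition of human TGW cells, read out with a cell viability assay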
# Description: SANGER: Inhibition of human TGW cell growth in a cell viability assay.
# VA-ES-BJ = details: Homo sapiens, VA-ES-BJ;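 note: growth inhibition of the VA-ES-BJ cell line, read out by a cell viability assay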
# Description: SANGER: Inhibition of human VA-ES-BJ cell growth in a cell viability assay.
# no-11 = details: Homo sapiens;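 note: growth inhibition of human NO-11 cells, read out with a cell viability assay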
# Description: SANGER: Inhibition of human no-11 cell growth in a cell viability assay.
# CAS-1 = details: Homo sapiens, CAS-1;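 note: growth inhibition of CAS-1 cells, measured with a cell viability assay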
# Description: SANGER: Inhibition of human CAS-1 cell growth in a cell viability assay.
# COLO-320-HSR = details: Homo sapiens, COLO-320-HSR;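 note: growth inhibition of COLO-320-HSR cells, determined with a cell viability assay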
# Description: SANGER: Inhibition of human COLO-320-HSR cell growth in a cell viability assay.
# SNU-C2B = details: Homo sapiens, SNU-C2B;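 note: cell viability readout used to measure compound-driven suppression of SNU-C2B cell proliferation, IC50 marking half-maximal growth inhibition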
# Description: SANGER: Inhibition of human SNU-C2B cell growth in a cell viability assay.
# A704 = details: Homo sapiens, A704;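 note: growth inhibition of human A704 cells, read out with a cell viability assay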
# Description: SANGER: Inhibition of human A704 cell growth in a cell viability assay.
# TE-11 = details: Homo sapiens, TE-11;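 note: growth inhibition of human TE-11 cells, read out by a cell viability assay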
# Description: SANGER: Inhibition of human TE-11 cell growth in a cell viability assay.
compound,measurement,setting,value
CC[C@H](CO)Nc1nc(NCc2ccccc2)c2ncn(C(C)C)c2n1 [SELICICLIB],IC50,COLO-824,> 16 µM
same,IC50,CTB-1,> 16 µM
same,IC50,CTV-1,> 16 µM
same,IC50,Calu-6,> 16 µM
same,IC50,D-263MG,> 16 µM
same,IC50,ES6,> 16 µM
same,IC50,EW-16,> 16 µM
same,IC50,EOL1,> 16 µM
same,IC50,HCC1187,> 16 µM
same,IC50,HCC2157,> 16 µM
same,IC50,HCC2218,> 16 µM
same,IC50,HEL,> 16 µM
same,IC50,HT-144,> 16 µM
same,IC50,JAR,> 16 µM
same,IC50,KGN,> 16 µM
same,IC50,KM12,> 16 µM
same,IC50,KY821,> 16 µM
same,IC50,LAN-6,> 16 µM
same,IC50,LB2518-MEL,> 16 µM
same,IC50,LU-134-A,> 16 µM
same,IC50,LU-139,> 16 µM
same,IC50,MFH-ino,> 16 µM
same,IC50,MS-1,> 16 µM
same,IC50,NCI-H1304,> 16 µM
same,IC50,NCI-H2126,> 16 µM
same,IC50,NCI-H526,> 16 µM
same,IC50,SNU1,> 16 µM
same,IC50,SNU-5,> 16 µM
same,IC50,NMC-G1,> 16 µM
same,IC50,PSN1,> 16 µM
same,IC50,RXF 393,> 16 µM
same,IC50,SCH,> 16 µM
same,IC50,SF-126,> 16 µM
same,IC50,SJSA-1,> 16 µM
same,IC50,SK-N-FI,> 16 µM
same,IC50,A253 cell line,> 16 µM
same,IC50,A388,> 16 µM
same,IC50,ALL-PO,> 16 µM
same,IC50,BT-474,> 16 µM
same,IC50,Becker,9.46 µM
same,IC50,C8166,> 16 µM
same,IC50,TE-6,> 16 µM
same,IC50,TGW,> 16 µM
same,IC50,VA-ES-BJ,> 16 µM
same,IC50,no-11,> 16 µM
same,IC50,CAS-1,> 16 µM
same,IC50,COLO-320-HSR,> 16 µM
CCN(CC)CCCCNc1ncc2cc(-c3cc(OC)cc(OC)c3)c(NC(=O)NC(C)(C)C)nc2n1 [PD-173074],IC50,COLO-824,> 2 µM
same,IC50,CTB-1,> 2 µM
same,IC50,CTV-1,> 2 µM
same,IC50,Calu-6,> 2 µM
same,IC50,D-263MG,0.712 µM
same,IC50,ES6,> 2 µM
same,IC50,EW-16,> 2 µM
same,IC50,EOL1,0.33 µM
same,IC50,HCC1187,> 2 µM
same,IC50,HCC2157,> 2 µM
same,IC50,HCC2218,> 2 µM
same,IC50,HEL,> 2 µM
same,IC50,HT-144,> 2 µM
same,IC50,JAR,> 2 µM
same,IC50,KGN,> 2 µM
same,IC50,KM12,> 2 µM
same,IC50,KY821,> 2 µM
same,IC50,LAN-6,> 2 µM
same,IC50,LB2518-MEL,> 2 µM
same,IC50,LU-134-A,> 2 µM
same,IC50,LU-139,> 2 µM
same,IC50,MS-1,> 2 µM
same,IC50,NCI-H1304,> 2 µM
same,IC50,NCI-H2126,> 2 µM
same,IC50,NCI-H526,> 2 µM
same,IC50,SNU1,> 2 µM
same,IC50,SNU-5,> 2 µM
same,IC50,NMC-G1,> 2 µM
same,IC50,PSN1,> 2 µM
same,IC50,RXF 393,> 2 µM
same,IC50,SCH,> 2 µM
same,IC50,SF-126,> 2 µM
same,IC50,SJSA-1,> 2 µM
same,IC50,SK-N-FI,> 2 µM
same,IC50,SNU-C2B,> 2 µM
same,IC50,A253 cell line,> 2 µM
same,IC50,A388,> 2 µM
same,IC50,A704,> 2 µM
same,IC50,ALL-PO,> 2 µM
same,IC50,BT-474,> 2 µM
same,IC50,Becker,> 2 µM
same,IC50,C8166,> 2 µM
same,IC50,TE-11,> 2 µM
same,IC50,TE-6,> 2 µM
same,IC50,TGW,> 2 µM
same,IC50,VA-ES-BJ,> 2 µM
same,IC50,no-11,> 2 µM
same,IC50,CAS-1,> 2 µM
same,IC50,COLO-320-HSR,> 2 µM
COc1cc2c(Nc3ccc(NC(=O)c4ccccc4)cc3)ncnc2cc1OCCCN1CCOCC1,IC50,COLO-824,> 4 µM
same,IC50,CTB-1,1.67 µM
same,IC50,CTV-1,2.07 µM
same,IC50,Calu-6,> 4 µM
same,IC50,D-263MG,2.71 µM
same,IC50,ES6,> 4 µM
same,IC50,EW-16,3.23 µM
same,IC50,EOL1,0.187 µM
same,IC50,HCC1187,> 4 µM
same,IC50,HCC2157,> 4 µM
same,IC50,HCC2218,> 4 µM
same,IC50,HEL,> 4 µM
same,IC50,HT-144,> 4 µM
same,IC50,JAR,> 4 µM
same,IC50,KGN,> 4 µM
same,IC50,KM12,> 4 µM
same,IC50,KY821,> 4 µM
same,IC50,LAN-6,> 4 µM
same,IC50,LB2518-MEL,> 4 µM
same,IC50,LU-134-A,> 4 µM
same,IC50,LU-139,3.83 µM
same,IC50,MS-1,> 4 µM
same,IC50,NCI-H1304,> 4 µM
same,IC50,NCI-H2126,> 4 µM
same,IC50,NCI-H526,> 4 µM
same,IC50,SNU1,3.11 µM
same,IC50,SNU-5,> 4 µM
same,IC50,NMC-G1,> 4 µM
same,IC50,PSN1,> 4 µM
same,IC50,RXF 393,3.49 µM
same,IC50,SCH,> 4 µM
same,IC50,SF-126,> 4 µM
same,IC50,SJSA-1,> 4 µM
same,IC50,SK-N-FI,> 4 µM
same,IC50,SNU-C2B,> 4 µM
same,IC50,A253 cell line,> 4 µM
same,IC50,A388,3.5 µM
same,IC50,A704,> 4 µM
same,IC50,ALL-PO,2.67 µM
same,IC50,BT-474,> 4 µM
same,IC50,Becker,> 4 µM
same,IC50,C8166,> 4 µM
same,IC50,TE-11,0.537 µM
same,IC50,TE-6,> 4 µM
same,IC50,TGW,> 4 µM
same,IC50,VA-ES-BJ,2.79 µM
same,IC50,no-11,> 4 µM
same,IC50,CAS-1,> 4 µM
same,IC50,COLO-320-HSR,> 4 µM
